Measurements from paper doi:10.1101/507434v1 (bioRxiv, 2018).
Where two headings read alike, the source gives them in different places. Blank lines part the entries; values can stand above or below the compound they belong to. Bridge positions count the residues as written; N and C are the ends. Square brackets hold non-standard residues; d marks the D form. Ends that are not written are not given here. Peptide text beside a SMILES is read from it. d2Nal = N[C@H](Cc1ccc2ccccc2c1)C(=O)O; Nle = CCCC[C@H](N)C(=O)O

Tests used:
[1] = Pharmacokinetics of TCMCB07 in anesthetized rats: plasma and bile levels; format: in vivo, Sprague-Dawley rats
[2] = tested on: rats given LPS to induce cachexia; assay: LPS; format: in vivo, rat; conditions: for body weight as percent of pre-LPS baseline (Fig 1 Panel D) / food intake (Fig 1 Panel C): rats given LPS, peptide IP at 2mg/kg, 24 hours following challenge, 8/group; for oral anticachexia activity: LPS challenge, oral route of peptide administration
Lewis sarcoma rat model = assay: Lewis sarcoma rat cancer cachexia model; format: in vivo; conditions: tumor-bearing rats, SC; for summary 6-Day food intake: two daily doses
[3] = Plasma and liver concentration of antiviral peptides after oral gavage in mice; format: in vivo, female mice; conditions: for level at time molar at 1 h / level at time molar at 2.5 h / level at time molar at 0.5 h / level at time molar at 2 h / level at time molar at 4 h: female, mouse, po; for level at time molar at 1 h / level at time molar at 2.5 h: 72 mg/kg; for level at time molar at 0.5 h / level at time molar at 2 h / level at time molar at 4 h: 60 mg/kg
[4] = tested on: hepatitis C virus (HCV) RNA; assay: Standard solution assays of anti-hepatitis C activity; format: biochemical
[5] = ref Gallagher et al., 2016, cited from earlier work; for plasma half-life: separate experiment, in vitro or in vivo not stated
[6] = tested on: orthotopic human breast cancer cell line transplant (cell line MDA-MB-231); conditions: ref Gallagher et al., 2016; cited from earlier work
[7] = ref Iusuf et al., 2008; cited from earlier work
HCV replicon = conditions: cellular HCV replicon assay; ref Bradford and Cowan, 2012; cited from earlier work

- Tmax ([1]; Sprague-Dawley, rat, plasma, sc, 3 mg/kg): 2.5 h
- in vivo mechanism of clearance ([1]; anesthetized rats, 3mg/kg SC (Fig. 3)): hepatic blood-to-bile transport
Compound: CCCC[C@H](NC(C)=O)C(=O)N[C@H]1CC(=O)NCCCC[C@@H](C(=O)N[C@@H](C(=O)N2CCC[C@@H]2C(N)=O)C(C)C)NC(=O)[C@H](Cc2c[nH]c3ccccc23)NC(=O)[C@H](CCCN=C(N)N)NC(=O)[C@@H](Cc2ccc3ccccc3c2)NC(=O)[C@@H]2CCCN2C1=O [TCMCB07] (Ac-[Nle]DP[d2Nal]RWK[dV][dP]-NH2; lactam 2-7)

Compound: CCCC[C@H](NC(C)=O)C(=O)N[C@H]1CC(=O)NCCCC[C@@H](C(=O)N[C@@H](C(=O)N2CCC[C@@H]2C(N)=O)C(C)C)NC(=O)[C@H](Cc2c[nH]c3ccccc23)NC(=O)[C@H](CCCNC(=N)N)NC(=O)[C@@H](Cc2ccc3ccccc3c2)NC(=O)[C@@H]2CCCN2C1=O [TCMCB07] (Ac-[Nle]DP[d2Nal]RWK[dV][dP]-NH2; lactam 2-7)
- body weight as percent of pre-LPS baseline (Fig 1 Panel D) [2]: produced a significant weight gain
- food intake (Fig 1 Panel C) [2]: stimulated appetite
- oral anticachexia activity ([2]; rats): shown to have oral anticachexia activity
- tumor weight / tumor growth (Lewis sarcoma rat model; 1.5 and 3 mg/kg BW/day, data not shown): no effect on tumor growth
- summary 6-Day food intake (Lewis sarcoma rat model; total 1.5 mg/kg BW/day (LB07)): not different than Sham/saline controls
- summary 6-Day food intake (Lewis sarcoma rat model; total 3mg/kg BW/day (HB07)): not different than Sham/saline controls

Compound: CC(=O)NCC(=O)NCC(=O)N[C@@H](Cc1c[nH]cn1)C(=O)N[C@H]1CC(=O)NCCCC[C@@H](C(=O)N[C@@H](C(=O)N2CCC[C@@H]2C(N)=O)C(C)C)NC(=O)[C@H](CCCCN)NC(=O)[C@H](Cc2ccccc2)NC(=O)[C@H](CCCNC(=N)N)NC(=O)[C@H](Cc2ccc(O)cc2)NC1=O [TCMP01] (Ac-GGHDYRFKK[dV][dP]-NH2; lactam 4-9)
- level at time molar at 1 h ([3]; liver): 14 nM
- level at time molar at 2.5 h ([3]; liver): 4 nM
- level at time molar at 1 h ([3]; plasma): 1000 nM
- level at time molar at 2.5 h ([3]; plasma): 24 nM
- solution antihepatitis activity relative to the parent peptide Metallo-drug 2-Cu [4]: within a factor of two

Compound: CC(=O)NCC(=O)NCC(=O)N[C@@H](Cc1c[nH]cn1)C(=O)N[C@H]1CC(=O)NCCCC[C@@H](C(=O)N[C@@H](C(=O)N2CCC[C@@H]2C(N)=O)C(C)C)NC(=O)[C@H](CCCCN)NC(=O)[C@H](Cc2ccccc2)NC(=O)[C@H](CCCNC(=N)N)NC(=O)[C@H](Cc2ccc(O)cc2)NC(=O)[C@@H]2CCCN2C1=O [TCMP03] (Ac-GGHDPYRFKK[dV][dP]-NH2; lactam 4-10)
- level at time molar at 0.5 h ([3]; liver): 43 nM
- level at time molar at 2 h ([3]; liver): 30 nM
- level at time molar at 4 h ([3]; liver): 4 nM
- level at time molar at 0.5 h ([3]; plasma): 2910 nM
- level at time molar at 2 h ([3]; plasma): 75700 nM
- level at time molar at 4 h ([3]; plasma): 384 nM
- enhancement of hepatic (target tissue) uptake relative to TCMP01 ([3]; mice, oral gavage, Table 3): 4 fold
- solution antihepatitis activity relative to the parent peptide Metallo-drug 2-Cu [4]: within a factor of two

Compound: Ac-Nle-^1 c(Asp-Pro-D-Nal2’-Arg-Trp-Lys)-D-Pro-D-Val-NH2 (sidechain bridge or staple) [TCMCB02]
- oral anticachexia activity ([2]; rats): no oral anticachexia activity
- overnight body weight gain ([2]; rats, parenteral peptide after parenteral LPS, end of 12 hr dark cycle, n=6): ~5%

Compound: Ac-Nle-c(Asp-Arg-Val-Tyr-Ile-His-Pro-Lys)-D-Val-D-Pro-NH2 (sidechain bridge or staple) [TCANG05]
- plasma half-life [5]: 50 h
- stability compared to angiotensin 1-7 ([5]; using in vitro and in vivo assays): greatly enhanced stability
- oral activity [6]: orally active

Compound: Ac-Nle-c[Asp-Pro-D-Nal(2′)-Arg-Trp-Lys]-β-Pro-β^2-Val-NH2 (sidechain bridge or staple) [TCMCB05]
- body weight as percent of pre-LPS baseline (Fig 1 Panel D) [2]: produced a significant weight gain
- food intake (Fig 1 Panel C) [2]: stimulated appetite

Compound: Ac-Nle-c[Asp-Pro-D-Nal(2′)-Arg-Trp-Lys]-β-Pro-β^3-Val-NH2 (sidechain bridge or staple) [TCMCB06]
- body weight as percent of pre-LPS baseline (Fig 1 Panel D) [2]: no weight gain

Compound: Asp-Arg-Val-Tyr-Ile-His-Pro-OH [angiotensin^1-7, reference compound]
- plasma half-life [7]: ~0.5 h
- plasma half-life [5]: 0.5 h
- oral activity [6]: not orally active

Compound: GGHY[dR]FK [Metallo-drug 2-Cu, reference compound]
- oral availability ([3]; mice, oral gavage, also short circulating half-life and poor liver uptake stated): no oral availability
- antiviral activity (HCV replicon): confirmed
